Experimental data taken from US5591741A, “Fungicidal spiroheterocyclic derivatives” (American Cyanamid Company, priority 1993, dated 1997).

Tests used:
Alternaria solani = experiment: Activity against tomato early blight (AS); format: in vivo; details: Table VI; tomato seedlings, contact prophylactic foliar spray, 4 days
How it was run: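 Foliar contact prophylactic spray on tomato seedlings (cv Outdoor Girl, second true leaf expanded) in acetone/water 50:50 with 0.04% Tween 20; 24 h at 20° C, 40% R.H., then inoculation with 10^4 spores/ml A. solani conidia. Kept moist at 21° C; lesion cover rated 4 days post-inoculation against untreated or diluent-sprayed controls.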

Venturia inaequalis = experiment: Activity against apple scab in-vitro (VII); format: cell-based; details: 10 ppm, 10 days, 20° C., mycelial growth
How it was run: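 Compound in acetone was tested at 10 ppm final in half-strength Potato Dextrose Broth inoculated with V. inaequalis mycelial fragments and spores at 5×10^4 propagules/ml. After 10 days at 20° C, mycelial growth was rated against untreated or diluent controls.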

Pyricularia oryzae = format: in vivo; details: rice seedlings, direct therapeutic foliar spray, 600 ppm, 4-5 days
Phytophthora infestans = format: in vivo; details: tomato, direct protectant foliar spray
Rhizoctonia solani = experiment: Activity against Rhizoctonia in-vitro (RSI); format: cell-based; details: 10 ppm, 10 days, 20° C., mycelial growth
How it was run: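 R. solani mycelial fragments (5×10^4/ml) in half-strength Potato Dextrose Broth with compound added from acetone to 10 ppm final. Mycelial growth assessed after 10 days at 20° C, rated against untreated or diluent control.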

[1] = test system: Erysiphe graminis f.sp. hordei; experiment: Activity against barley powdery mildew, direct therapeutic (EGT); format: in vivo; details: direct therapeutic foliar spray, 600 ppm, up to 7 days
How it was run: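 Barley seedlings (cv. Golden Promise, single-leaf stage) were dusted with mildew conidia one day before a therapeutic foliar spray of 600 ppm compound. Plants were kept at 18 °C and 40% humidity for up to 7 days, and sporulating leaf area was rated against untreated or diluent-sprayed controls.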

[2] = test system: Erysiphe graminis f.sp. hordei; experiment: Direct protectant activity against barley powdery mildew (EGP); format: in vivo; details: direct protectant foliar spray, 8 days
How it was run: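 Barley seedlings (cv Golden Promise, single-leaf stage) were foliar-sprayed, held 24 h at 18 °C/40% RH, then dusted with mildew conidia. After 8 days at 18 °C/40% RH, sporulating leaf area was scored as a rating against untreated or diluent-sprayed controls.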

Plasmopara viticola = experiment: Antisporulant activity against vine downy mildew (PVA); format: in vivo; details: vine leaves, antisporulant foliar spray, 600 ppm, 750 l/ha
How it was run: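 Cabernet Sauvignon vines (~8 cm) inoculated on lower leaf surfaces with 5×10^4 zoosporangia/ml, held 24 h at 21° C high humidity then 24 h glasshouse. Infected leaves sprayed underside with 600 ppm compound in 1:1 water/acetone, 0.04% Tween 20, 750 l/ha; 96 h glasshouse, 24 h humidity. Sporulating leaf area rated versus control.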

[3] = test system: Pseudocercosporella herpotrichoides; experiment: Activity against wheat eyespot in-vitro (PHI); format: cell-based; details: 10 ppm, 10 days, 20° C., mycelial growth
How it was run: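 P. herpotrichoides mycelial fragments (5×10^4/ml) grown in half-strength PDB with compound at 10 ppm final, added from acetone. Incubated 10 days at 20 °C; mycelial growth rated against untreated or diluent controls.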

Leptosphaeria nodorum = experiment: Activity against wheat leafspot (LN); format: in vivo; details: direct therapeutic foliar spray, 600 ppm, 6-8 days
How it was run: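 Wheat cv Norman at single-leaf stage spray-inoculated with 1.5×10^6 conidia/ml, held 24 h at high humidity, then sprayed therapeutically with test compound at 600 ppm. Kept 6-8 days at 22° C, 70% humidity; lesion density per leaf rated against untreated or diluent-sprayed controls.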

Botrytis cinerea = experiment: Direct protectant activity against broad bean grey mould (BCB); format: in vivo; details: direct protectant foliar spray, 600 ppm, 4 days
How it was run: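 Broad bean plants (cv The Sutton, two leaf pairs) sprayed on upper leaf surfaces at 600 ppm, then inoculated 24 h later with 10^6 conidia/ml. Kept 4 days at 22 °C, high humidity; disease control rated from % leaf area with lesions against untreated or diluent controls.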

Row | Structure (SMILES) | disease control rating AS (Alternaria solani) | disease control rating VII (Venturia inaequalis) | disease control rating PO (Pyricularia oryzae) | disease control rating PIP (Phytophthora infestans) | disease control rating RSI (Rhizoctonia solani) | disease control rating EGT [1] | disease control rating EGP [2] | disease control rating PVA (Plasmopara viticola) | disease control rating PHI [3] | disease control rating LN (Leptosphaeria nodorum) | disease control rating BCB (Botrytis cinerea)
1 | CCC(C)NC1COC2(CCC(C(C)(C)C)CC2)C1 (stereo not shown) [Compound 65] | 0 (less than 50% disease control) | 0 (less than 50% disease control) | 0 (less than 50% disease control) | 0 (less than 50% disease control) | 0 (less than 50% disease control) | 2 (greater than 80% disease control) | 2 (greater than 80% disease control) | 0 (less than 50% disease control) | 0 (less than 50% disease control) | 0 (less than 50% disease control) | 2 (greater than 80% disease control)
2 | CC(C)CNC1COC2(CCC(C(C)(C)C)CC2)C1 (stereo not shown) [Compound 66] | 0 (less than 50% disease control) | 0 (less than 50% disease control) | 0 (less than 50% disease control) | 0 (less than 50% disease control) | 0 (less than 50% disease control) | 2 (greater than 80% disease control) | 2 (greater than 80% disease control) | 0 (less than 50% disease control) | 0 (less than 50% disease control) | 0 (less than 50% disease control) | 2 (greater than 80% disease control)
3 | CN(C)C1COC2(CCC(C(C)(C)C)CC2)C1 (stereo not shown) [Compound 67] | 0 (less than 50% disease control) | 0 (less than 50% disease control) | 1 (about 50-80% disease control) | 2 (greater than 80% disease control) | 0 (less than 50% disease control) | 2 (greater than 80% disease control) | 2 (greater than 80% disease control) | 0 (less than 50% disease control) | 0 (less than 50% disease control) | 1 (about 50-80% disease control) | 0 (less than 50% disease control)
4 | CCN(CC)C1COC2(CCC(C(C)(C)C)CC2)C1 (stereo not shown) [Compound 68] | 0 (less than 50% disease control) | 1 (about 50-80% disease control) | 1 (about 50-80% disease control) | 0 (less than 50% disease control) | 0 (less than 50% disease control) | 2 (greater than 80% disease control) | 2 (greater than 80% disease control) | 0 (less than 50% disease control) | 0 (less than 50% disease control) | 0 (less than 50% disease control) | 0 (less than 50% disease control)
5 | CCCCCCN(CCCCCC)C1COC2(CCC(C(C)(C)C)CC2)C1 (stereo not shown) [Compound 69] | 0 (less than 50% disease control) | 2 (greater than 80% disease control) | 1 (about 50-80% disease control) | 0 (less than 50% disease control) | 0 (less than 50% disease control) | 2 (greater than 80% disease control) | 2 (greater than 80% disease control) | 0 (less than 50% disease control) | 0 (less than 50% disease control) | 0 (less than 50% disease control) | 0 (less than 50% disease control)
